Reference: the Kinase Knowledgebase extract (Sharma et al. 2016)
pIC50: −log10 of the molar value.

Biological target: EGFR (UniProt P00533)
Sequence (P00533 whole entry, looked up): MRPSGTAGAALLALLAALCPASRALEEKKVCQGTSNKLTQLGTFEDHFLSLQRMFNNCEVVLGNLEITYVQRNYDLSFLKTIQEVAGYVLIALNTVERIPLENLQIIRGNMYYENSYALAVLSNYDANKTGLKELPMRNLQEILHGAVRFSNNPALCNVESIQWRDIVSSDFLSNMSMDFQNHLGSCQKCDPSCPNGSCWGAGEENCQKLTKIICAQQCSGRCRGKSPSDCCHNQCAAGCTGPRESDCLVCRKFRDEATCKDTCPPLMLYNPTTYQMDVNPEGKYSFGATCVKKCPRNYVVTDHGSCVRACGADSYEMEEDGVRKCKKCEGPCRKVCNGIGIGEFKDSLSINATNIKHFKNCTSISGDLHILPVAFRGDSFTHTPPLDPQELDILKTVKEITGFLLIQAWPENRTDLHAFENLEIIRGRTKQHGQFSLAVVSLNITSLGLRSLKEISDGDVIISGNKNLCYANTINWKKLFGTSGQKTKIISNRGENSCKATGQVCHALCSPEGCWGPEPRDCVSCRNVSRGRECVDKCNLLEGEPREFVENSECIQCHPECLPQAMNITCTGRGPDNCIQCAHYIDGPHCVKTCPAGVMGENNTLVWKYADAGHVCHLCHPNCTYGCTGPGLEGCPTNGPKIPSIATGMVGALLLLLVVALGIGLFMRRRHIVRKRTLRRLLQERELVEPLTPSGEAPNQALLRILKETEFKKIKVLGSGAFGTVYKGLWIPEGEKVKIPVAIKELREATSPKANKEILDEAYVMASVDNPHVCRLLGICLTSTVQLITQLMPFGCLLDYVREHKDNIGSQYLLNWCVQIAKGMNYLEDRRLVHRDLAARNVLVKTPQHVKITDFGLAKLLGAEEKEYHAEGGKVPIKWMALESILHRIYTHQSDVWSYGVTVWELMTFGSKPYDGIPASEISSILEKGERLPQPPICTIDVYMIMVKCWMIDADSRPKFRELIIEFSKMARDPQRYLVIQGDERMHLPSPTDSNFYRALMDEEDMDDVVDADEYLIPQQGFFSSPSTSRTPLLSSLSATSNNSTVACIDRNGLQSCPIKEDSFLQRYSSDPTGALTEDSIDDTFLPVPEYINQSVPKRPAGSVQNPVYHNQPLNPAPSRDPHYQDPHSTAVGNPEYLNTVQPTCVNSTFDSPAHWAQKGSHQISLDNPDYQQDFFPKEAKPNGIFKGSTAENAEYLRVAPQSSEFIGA

Row | Structure (SMILES) | pIC50
1 | CCN(CC)CCOc1cc2ncnc(NS(=O)(=O)c3ccc(Br)cc3)c2cc1OC | ≥ 6.00
2 | COc1cc2c(NS(=O)(=O)c3ccccc3Br)ncnc2cc1OC1CCN(C)CC1 | ≥ 6.00
3 | COc1ccc(S(=O)(=O)Nc2ncnc3cc(OCCN4CCOCC4)c(OC)cc23)cc1 | ≥ 6.00
4 | COc1cc2c(NS(=O)(=O)c3ccc(Br)cc3)ncnc2cc1OCCN1CCN(C)CC1 | ≥ 6.00
5 | CCN(CC)CCOc1cc2ncnc(NS(=O)(=O)c3ccc(Sc4ccccc4)s3)c2cc1OC | ≥ 6.00
6 | COc1cc2c(NS(=O)(=O)c3ccc(C)cc3)ncnc2cc1OCCN1CCN(C)CC1 | ≥ 6.00
7 | COc1cc2c(NS(=O)(=O)c3sc(C)nc3C)ncnc2cc1OCCN1CCOCC1 | ≥ 6.00
8 | COc1cc2c(NS(C)(=O)=O)ncnc2cc1OC1CCN(C)CC1 | ≥ 6.00
9 | CCN(CC)CCOc1cc2ncnc(NS(=O)(=O)c3ccc(Sc4cccs4)s3)c2cc1OC | ≥ 6.00
10 | COc1cc2c(NS(=O)(=O)c3ccccc3Cl)ncnc2cc1OCCN1CCN(C)CC1 | ≥ 6.00
11 | COc1cc2c(NS(=O)(=O)c3cccc(Cl)c3)ncnc2cc1OCCCN1CCOCC1 | ≥ 6.00
12 | COc1cc2c(NS(=O)(=O)c3cccc4cccnc34)ncnc2cc1OCCCN1CCOCC1 | ≥ 6.00
13 | COc1cc2c(NS(=O)(=O)c3cc(Cl)cc(Cl)c3)ncnc2cc1OCCN1CCOCC1 | ≥ 6.00
14 | COc1cc2c(NS(=O)(=O)c3ccccc3)ncnc2cc1OCCN1CCCCC1 | ≥ 6.00
15 | COc1cc2c(NS(=O)(=O)c3cccc(Cl)c3Cl)ncnc2cc1OCCN1CCOCC1 | ≥ 6.00
16 | COc1ccc(S(=O)(=O)Nc2ncnc3cc(OC4CCN(C)CC4)c(OC)cc23)cc1OC | ≥ 6.00
17 | COc1cc2c(NS(=O)(=O)c3cccc(Cl)c3)ncnc2cc1OCCCN(C)C | ≥ 6.00
18 | COc1cc2c(NS(=O)(=O)c3ccccc3C)ncnc2cc1OCCN1CCCCC1 | ≥ 6.00
19 | CCN(CC)CCOc1cc2ncnc(NS(=O)(=O)c3cc(OC)ccc3OC)c2cc1OC | ≥ 6.00
20 | COc1cc2c(NS(=O)(=O)c3ccc(C(C)(C)C)cc3)ncnc2cc1OCCCN(C)C | ≥ 6.00
21 | CCN(CC)CCOc1cc2ncnc(NS(=O)(=O)Cc3ccccc3)c2cc1OC | ≥ 6.00
22 | COc1cc2c(NS(=O)(=O)c3cccc(Br)c3)ncnc2cc1OCCN1CCOCC1 | ≥ 6.00
23 | COc1ccc(S(=O)(=O)Nc2ncnc3cc(OCCCN4CCOCC4)c(OC)cc23)cc1 | ≥ 6.00
24 | COc1cc2c(NS(=O)(=O)c3ccccc3)ncnc2cc1OCCCN(C)C | ≥ 6.00
25 | COc1cc2c(NS(=O)(=O)c3ccc(F)cc3)ncnc2cc1OCCN1CCCCC1 | ≥ 6.00
26 | COc1cc2c(NS(=O)(=O)c3ccccc3)ncnc2cc1OC1CCN(C)CC1 | ≥ 6.00

Row | Structure (SMILES) | pIC50
27 | CCN(CC)CCOc1cc2ncnc(NS(=O)(=O)c3ccccc3)c2cc1OC | ≥ 6.00
28 | COc1cc2c(NS(=O)(=O)c3ccccc3C)ncnc2cc1OCCCN1CCOCC1 | ≥ 6.00
29 | COc1cc2c(NS(=O)(=O)c3cccc(Cl)c3)ncnc2cc1OCCN1CCN(C)CC1 | ≥ 6.00
30 | COc1cc2c(NS(=O)(=O)c3c(C)cc(C)cc3C)ncnc2cc1OCCN1CCCCC1 | ≥ 6.00
31 | CCN(CC)CCOc1cc2ncnc(NS(=O)(=O)c3cccc4cccnc34)c2cc1OC | ≥ 6.00
32 | CCN(CC)CCOc1cc2ncnc(NS(=O)(=O)c3ccc(Cl)s3)c2cc1OC | ≥ 6.00
33 | COc1cc2c(NS(=O)(=O)c3ccc(F)cc3)ncnc2cc1OC1CCN(C)CC1 | ≥ 6.00
34 | CCN(CC)CCOc1cc2ncnc(NS(=O)(=O)c3cccc(Cl)c3)c2cc1OC | ≥ 6.00
35 | COc1cc2c(NS(=O)(=O)c3cccc(Cl)c3)ncnc2cc1OC1CCN(C)CC1 | ≥ 6.00
36 | CCN(CC)CCOc1cc2ncnc(NS(=O)(=O)c3ccccc3C)c2cc1OC | ≥ 6.00
37 | COc1cc2c(NS(=O)(=O)c3cn(C)cn3)ncnc2cc1OCCN1CCOCC1 | ≥ 6.00
38 | COc1cc2c(NS(=O)(=O)c3cc(Cl)c(Cl)s3)ncnc2cc1OCCN1CCOCC1 | ≥ 6.00
39 | COc1cc2c(NS(=O)(=O)c3cc(Cl)cc(Cl)c3)ncnc2cc1OCCCN(C)C | ≥ 6.00
40 | COc1cc2c(NS(=O)(=O)c3ccc(Sc4cccs4)s3)ncnc2cc1OC1CCN(C)CC1 | ≥ 6.00
41 | COc1cc2c(NS(=O)(=O)c3ccc(Br)cc3)ncnc2cc1OCCN1CCOCC1 | ≥ 6.00
42 | COc1cc2c(NS(=O)(=O)c3ccccc3Br)ncnc2cc1OCCCN(C)C | ≥ 6.00
43 | COc1cc2c(NS(=O)(=O)c3ccc(C)cc3)ncnc2cc1OCCCN(C)C | ≥ 6.00
44 | CCN(CC)CCOc1cc2ncnc(NS(=O)(=O)c3ccc(OC)cc3)c2cc1OC | ≥ 6.00
45 | COc1cc2c(NS(=O)(=O)c3ccc(Br)cc3)ncnc2cc1OC1CCN(C)CC1 | ≥ 6.00
46 | COc1cc2c(NS(=O)(=O)c3ccccc3)ncnc2cc1OCCN1CCOCC1 | ≥ 6.00
47 | COc1cc2c(NS(=O)(=O)c3ccccc3Br)ncnc2cc1OCCN1CCOCC1 | ≥ 6.00
48 | COc1cc2c(NS(=O)(=O)Cc3ccccc3)ncnc2cc1OCCCN(C)C | ≥ 6.00
49 | COc1cc2c(NS(=O)(=O)c3ccc(C(C)(C)C)cc3)ncnc2cc1OCCN1CCN(C)CC1 | ≥ 6.00
50 | COc1ccc(OC)c(S(=O)(=O)Nc2ncnc3cc(OC4CCN(C)CC4)c(OC)cc23)c1 | ≥ 6.00
51 | COc1cc2c(NS(=O)(=O)c3ccccc3)ncnc2cc1OCCN1CCN(C)CC1 | ≥ 6.00
52 | COc1cc2c(NS(=O)(=O)c3ccc(Cl)s3)ncnc2cc1OCCN1CCOCC1 | ≥ 6.00

Row | Structure (SMILES) | pIC50
53 | CCN(CC)CCOc1cc2ncnc(NS(=O)(=O)c3cccc(Br)c3)c2cc1OC | ≥ 6.00
54 | COc1cc2c(NS(=O)(=O)c3cccc(Cl)c3Cl)ncnc2cc1OCCCN(C)C | ≥ 6.00
55 | COc1cc2c(NS(=O)(=O)c3ccc4ccccc4c3)ncnc2cc1OCCN1CCCCC1 | ≥ 6.00
56 | COc1cc2c(NS(=O)(=O)c3c(C)cc(C)cc3C)ncnc2cc1OCCCN(C)C | ≥ 6.00
57 | COc1cc2c(NS(=O)(=O)c3ccc(Cl)cc3Cl)ncnc2cc1OCCCN1CCOCC1 | ≥ 6.00
58 | COc1ccc(OC)c(S(=O)(=O)Nc2ncnc3cc(OCCCN(C)C)c(OC)cc23)c1 | ≥ 6.00
59 | COc1cc2c(NS(=O)(=O)c3cc(Cl)cc(Cl)c3)ncnc2cc1OCCCN1CCOCC1 | ≥ 6.00
60 | COc1ccc(S(=O)(=O)Nc2ncnc3cc(OCCN4CCCCC4)c(OC)cc23)cc1 | ≥ 6.00
61 | COc1ccc(S(=O)(=O)Nc2ncnc3cc(OC4CCN(C)CC4)c(OC)cc23)cc1 | ≥ 6.00
62 | CCN(CC)CCOc1cc2ncnc(NS(=O)(=O)c3cc(Cl)cc(Cl)c3)c2cc1OC | ≥ 6.00
63 | CCN(CC)CCOc1cc2ncnc(NS(=O)(=O)c3cn(C)cn3)c2cc1OC | ≥ 6.00
64 | COc1cc2c(NS(=O)(=O)c3ccc(OC(F)(F)F)cc3)ncnc2cc1OC1CCN(C)CC1 | ≥ 6.00
65 | COc1cc2c(NS(=O)(=O)c3cn(C)cn3)ncnc2cc1OCCN1CCCCC1 | ≥ 6.00
66 | COc1cc2c(NS(=O)(=O)c3cccc(Br)c3)ncnc2cc1OCCCN(C)C | ≥ 6.00
67 | COc1ccc(OC)c(S(=O)(=O)Nc2ncnc3cc(OCCN4CCCCC4)c(OC)cc23)c1 | ≥ 6.00
68 | COc1cc2c(NS(=O)(=O)c3ccc(Cl)cc3)ncnc2cc1OC1CCN(C)CC1 | ≥ 6.00
69 | CCN(CC)CCOc1cc2ncnc(NS(=O)(=O)c3c(C)noc3C)c2cc1OC | ≥ 6.00
70 | COc1cc2c(NS(=O)(=O)c3cccc(Cl)c3)ncnc2cc1OCCN1CCCCC1 | ≥ 6.00
71 | COc1ccc(S(=O)(=O)Nc2ncnc3cc(OCCCN(C)C)c(OC)cc23)cc1OC | ≥ 6.00
72 | COc1cc2c(NS(=O)(=O)c3ccc(C)cc3)ncnc2cc1OCCN1CCOCC1 | ≥ 6.00
73 | COc1cc2c(NS(=O)(=O)Cc3ccccc3)ncnc2cc1OCCN1CCOCC1 | ≥ 6.00
74 | COc1ccc(S(=O)(=O)Nc2ncnc3cc(OCCN4CCN(C)CC4)c(OC)cc23)cc1 | ≥ 6.00
75 | COc1cc2c(NS(=O)(=O)c3ccccc3Br)ncnc2cc1OCCN1CCCCC1 | ≥ 6.00
76 | COc1cc2c(NS(=O)(=O)c3cc(Cl)c(Cl)s3)ncnc2cc1OCCCN(C)C | ≥ 6.00
77 | CCN(CC)CCOc1cc2ncnc(NS(=O)(=O)c3ccc(OC(F)(F)F)cc3)c2cc1OC | ≥ 6.00
78 | COc1cc2c(NS(=O)(=O)c3ccc(Cl)cc3)ncnc2cc1OCCCN1CCOCC1 | ≥ 6.00
